Patent US11479553B2, “5-5 fused rings as C5a inhibitors” (CHEMOCENTRYX, INC., priority 2017, dated 2022)
pIC50: −log10 of the molar value.

target: C5aR (Homo sapiens (Human), UniProt P21730); experiment: Chemotaxis assay (inhibition of C5aR mediated migration toward C5a); type: cell-based; settings: inhibition in the chemotaxis assay (Example 14 B.3); U937 or neutrophil cells, C5a as chemoattractant
Protocol: U937 cells are a monocytic cell line which express C5aR, and are available from ATCC (VA). These cells were cultured as a suspension in RPMI-1640 medium supplemented with 2 mM L-glutamine, 1.5 g/L sodium bicarbonate, 4.5 g/L glucose, 10 mM HEPES, 1 mM sodium pyruvate, and 10% FBS. Cells were grown under 5% CO2/95% air, 100% humidity at 37° C. and subcultured twice weekly at 1:6 (cells were cultured at a density range of 1×10^5 to 2×10^6 cells/mL) and harvested at 1×10^6 cells/mL. Prior to assay, cells are treated overnight with 0.5 mM of cyclic AMP (Sigma, OH) and washed once prior to use. cAMP treated U937 cells can be used in C5aR ligand binding and functional assays.
Optionally, human or murine neutrophils can be used to assay for compound activity. Neutrophils may be isolated from fresh human blood using density separation and centrifigation. Briefly, whole blood is incubated with equal parts 3% dextran and allowed to separate for 45 minutes. After separation, the top layer is layered on top of 15 mls of Ficoll (15 mls of Ficoll for every 30 mls of blood suspension) and centrifuged for 30 minutes at 400×g with no brake. The pellet at the bottom of the tube is then isolated and resuspended into PharmLyse RBC Lysis Buffer (BD Biosciences, San Jose, Calif.) after which the sample is again centrifuged for 10 minutes at 400×g with brake. The remaining cell pellet is resuspended as appropriate and consists of isolated neutrophils.
Optionally, compounds may be further assayed for their ability to inhibit chemotaxis in cells. Chemotaxis assays are performed using 5 μm pore polycarbonate, polyvinylpyrrolidone-coated filters in 96-well chemotaxis chambers (Neuroprobe; Gaithersburg, Md.) using chemotaxis buffer (Hank's balanced salt solution (HBSS) and 1% FBS). C5aR ligands (i.e., C5a, R&D Systems; Minneapolis, Minn.) are use to evaluate compound mediated inhibition of C5aR mediated migration. Other chemokines (i.e., SDF-1α; R&D Systems; Minneapolis, Minn.) are used as specificity controls. The lower chamber is loaded with 29 μl of chemokine (i.e., 0.03 nM C5a) and varying amounts of compound; the top chamber contains 100,000 U937 or neutrophil cells in 20 μl. The chambers are incubated 1.5 hours at 37° C., and the number of cells in the lower chamber quantified either by direct cell counts in five high powered fields per well or by the CyQuant assay (Molecular Probes), a fluorescent dye method that measures nucleic acid content and microscopic observation.

C5aR, sequence (P21730 whole entry): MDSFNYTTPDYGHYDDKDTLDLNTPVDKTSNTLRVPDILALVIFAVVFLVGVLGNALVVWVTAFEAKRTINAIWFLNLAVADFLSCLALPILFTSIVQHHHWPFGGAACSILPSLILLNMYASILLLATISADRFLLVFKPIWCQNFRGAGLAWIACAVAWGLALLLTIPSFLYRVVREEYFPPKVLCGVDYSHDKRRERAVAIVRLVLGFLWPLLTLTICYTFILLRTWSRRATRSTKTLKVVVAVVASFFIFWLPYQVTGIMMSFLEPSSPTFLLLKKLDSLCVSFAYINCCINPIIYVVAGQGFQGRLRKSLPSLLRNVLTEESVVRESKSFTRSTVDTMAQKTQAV

**Q.** How did the pIC50 turn out when `CCc1cccc(CC)c1-n1nc2c(c1-c1ccc(F)c3[nH]ccc13)CN(CC(C)(C)C)C2(C)C` [Compound 1.009] was run?
**A.** Its pIC50 is 6.30 to 7.30.

**Q.** With `CCc1cccc(CC)c1-n1nc2c(c1-c1ccc(F)c3[nH]ccc13)CN(CC(C)(C)C(F)(F)F)C2(C)C` [Compound 1.032] as the molecule, how does the pIC50 read?
**A.** Its pIC50 is greater than 8.30.

**Q.** `CCc1cccc(CC)c1-n1nc2c(c1-c1ccc(F)c3[nH]ccc13)CN(C(=O)C(C)(C)C(F)(F)F)C2(C)C` [Compound 1.033] was tested. Which pIC50 did it give?
**A.** The pIC50 was 7.30 to 8.30.

**Q.** With `Cc1cccc(C)c1-n1nc2c(c1-c1ccc3[nH]ccc3c1)CN(CC(C)(C)C)C2` [Compound 1.051] as the molecule, how does the pIC50 read?
**A.** Its pIC50 is no more than 6.30.
